biological target: T1, Coagulation factor VII (Homo sapiens, UniProt P08709); test: TF-FVIIa Enzyme Inhibition Assay; conditions: 25 °C
T1 sequence (P08709 whole entry): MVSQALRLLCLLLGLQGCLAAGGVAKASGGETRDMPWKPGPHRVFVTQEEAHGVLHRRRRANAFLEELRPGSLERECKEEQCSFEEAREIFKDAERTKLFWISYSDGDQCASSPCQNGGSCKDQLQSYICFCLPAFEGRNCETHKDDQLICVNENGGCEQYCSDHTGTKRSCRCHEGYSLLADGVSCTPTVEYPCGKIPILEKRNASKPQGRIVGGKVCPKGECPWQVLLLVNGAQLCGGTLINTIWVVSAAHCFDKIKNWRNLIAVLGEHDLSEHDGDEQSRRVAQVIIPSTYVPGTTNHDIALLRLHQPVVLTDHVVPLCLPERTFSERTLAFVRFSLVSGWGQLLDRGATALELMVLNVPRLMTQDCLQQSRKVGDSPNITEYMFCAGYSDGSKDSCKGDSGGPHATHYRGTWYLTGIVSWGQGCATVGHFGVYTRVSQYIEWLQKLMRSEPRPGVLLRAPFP

IC50 [nM] | SMILES
5720 | N=C(N)c1ccc(NC(=O)c2ccccc2-c2ccccc2C(=O)O)cc1 [substituted biphenyl derivative, 9]

same assay, conditions: pH 7.2; 23 °C

IC50 [nM] | SMILES
52 | CC(C)CNC(=O)c1ccc(-c2ccc(/C=C\CO)cc2C(=O)Nc2ccc(C(=N)N)cc2)c(C(=O)O)c1 [substituted biphenyl derivative, 36m]

biological target: T2, Serine protease 1 (Bos taurus, UniProt P00760); test: TF-FVIIa Enzyme Inhibition Assay; conditions: 25 °C
T2 sequence (P00760 whole entry): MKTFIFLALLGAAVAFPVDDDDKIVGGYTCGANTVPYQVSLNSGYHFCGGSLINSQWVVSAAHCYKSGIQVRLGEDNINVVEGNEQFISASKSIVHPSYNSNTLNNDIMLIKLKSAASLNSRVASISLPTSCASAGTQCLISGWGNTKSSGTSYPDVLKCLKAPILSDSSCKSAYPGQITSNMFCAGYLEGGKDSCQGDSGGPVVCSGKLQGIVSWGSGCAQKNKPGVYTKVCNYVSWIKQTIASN

SMILES | IC50 [nM]
CC(C)CNC(=O)c1ccc(-c2ccc(Cc3cccs3)cc2C(=O)Nc2ccc(C(=N)N)cc2)c(C(=O)O)c1 [substituted biphenyl derivative, 36ag] | 1510
CC(C)CNC(=O)c1ccc(-c2ccc(-c3ccco3)cc2C(=O)Nc2ccc(C(=N)N)cc2)c(C(=O)O)c1 [substituted biphenyl derivative, 36ab] | 370
CC(C)CNC(=O)c1ccc(-c2ccc(-c3occc3CO)cc2C(=O)Nc2ccc(C(=N)N)cc2)c(C(=O)O)c1 [substituted biphenyl derivative, 36aq] | 770
CC(C)CNC(=O)c1ccc(-c2ccc(-c3cscc3CN=[N+]=[N-])cc2C(=O)Nc2ccc(C(=N)N)cc2)c(C(=O)O)c1 [substituted biphenyl derivative, 36am] | 1180
CC(C)=CCc1ccc(-c2ccc(C(=O)NCC(C)C)cc2C(=O)O)c(C(=O)Nc2ccc(C(=N)N)cc2)c1 [substituted biphenyl derivative, 36k] | 950
CC(C)CNC(=O)c1ccc(-c2ccccc2C(=O)Nc2ccc(C(=N)N)cc2)c(C(=O)O)c1 | 170
CC(C)CNC(=O)c1ccc(-c2ccc(-c3cscc3CN)cc2C(=O)Nc2ccc(C(=N)N)cc2)c(C(=O)O)c1 [substituted biphenyl derivative, 36an] | 1770
CC(C)CNC(=O)c1ccc(-c2ccc(-c3ccoc3CO)cc2C(=O)Nc2ccc(C(=N)N)cc2)c(C(=O)O)c1 [substituted biphenyl derivative, 36ao] | 740
CC(C)CNC(=O)c1ccc(-c2ccc(-c3ccccc3)cc2C(=O)Nc2ccc(C(=N)N)cc2)c(C(=O)O)c1 [substituted biphenyl derivative, 36v] | 420
CC(C)CNC(=O)c1ccc(-c2ccc(-c3ccncc3)cc2C(=O)Nc2ccc(C(=N)N)cc2)c(C(=O)O)c1 [substituted biphenyl derivative, 36x] | 1210
C=C=Cc1ccc(-c2ccc(C(=O)NCC(C)C)cc2C(=O)O)c(C(=O)Nc2ccc(C(=N)N)cc2)c1 [substituted biphenyl derivative, 36h] | 560
CC(C)CNC(=O)c1ccc(-c2ccc(-c3ccc[nH]3)cc2C(=O)Nc2ccc(C(=N)N)cc2)c(C(=O)O)c1 [substituted biphenyl derivative, 36ad] | 430
C=C(CO)c1ccc(-c2ccc(C(=O)NCC(C)C)cc2C(=O)O)c(C(=O)Nc2ccc(C(=N)N)cc2)c1 [substituted biphenyl derivative, 36n] | 3540
CC(C)CNC(=O)c1ccc(-c2ccc(-c3cocc3CO)cc2C(=O)Nc2ccc(C(=N)N)cc2)c(C(=O)O)c1 [substituted biphenyl derivative, 36ap] | 2290
CC(C)CNC(=O)c1ccc(-c2ccc(O)cc2C(=O)Nc2ccc(C(=N)N)cc2)c(C(=O)O)c1 [substituted biphenyl derivative, 36a] | 390
C=C(C)c1ccc(-c2ccc(C(=O)NCC(C)C)cc2C(=O)O)c(C(=O)Nc2ccc(C(=N)N)cc2)c1 [substituted biphenyl derivative, 36g] | 530
CC(C)CNC(=O)c1ccc(-c2ccc(-c3nccs3)cc2C(=O)Nc2ccc(C(=N)N)cc2)c(C(=O)O)c1 [substituted biphenyl derivative, 36af] | 1470
CC(C)CNC(=O)c1ccc(-c2ccc(-c3cscc3CO)cc2C(=O)Nc2ccc(C(=N)N)cc2)c(C(=O)O)c1 [substituted biphenyl derivative, 36ak] | 510
CC(C)CNC(=O)c1ccc(-c2ccc(-c3ccsc3)cc2C(=O)Nc2ccc(C(=N)N)cc2)c(C(=O)O)c1 [substituted biphenyl derivative, 36aa] | 380
COc1ccc(-c2ccc(C(=O)NCC(C)C)cc2C(=O)O)c(C(=O)Nc2ccc(C(=N)N)cc2)c1 [substituted biphenyl derivative, 24] | 820
CC(C)CNC(=O)c1ccc(-c2ccc(C(O)CO)cc2C(=O)Nc2ccc(C(=N)N)cc2)c(C(=O)O)c1 (stereo not drawn) [substituted biphenyl derivative, 36s] | 22100
CC(C)CNC(=O)c1ccc(-c2ccc(-c3cccn3C)cc2C(=O)Nc2ccc(C(=N)N)cc2)c(C(=O)O)c1 [substituted biphenyl derivative, 36ae] | 410
C=Cc1ccc(-c2ccc(C(=O)NCC(C)C)cc2C(=O)O)c(C(=O)Nc2ccc(C(=N)N)cc2)c1 [substituted biphenyl derivative, 36b] | 470
CC#Cc1ccc(-c2ccc(C(=O)NCC(C)C)cc2C(=O)O)c(C(=O)Nc2ccc(C(=N)N)cc2)c1 [substituted biphenyl derivative, 36i] | 1660

The remaining lines, values ahead:

IC50 [nM] | SMILES
3020 | CC(C)CNC(=O)c1ccc(-c2ccc(-c3cccnc3)cc2C(=O)Nc2ccc(C(=N)N)cc2)c(C(=O)O)c1 [substituted biphenyl derivative, 36y]
1770 | CC(C)CNC(=O)c1ccc(-c2ccc(/C=C\CO)cc2C(=O)Nc2ccc(C(=N)N)cc2)c(C(=O)O)c1 [substituted biphenyl derivative, 36m]
400 | CC(C)CNC(=O)c1ccc(-c2ccc(C#CCCO)cc2C(=O)Nc2ccc(C(=N)N)cc2)c(C(=O)O)c1 [substituted biphenyl derivative, 36q]
4390 | CC(C)CNC(=O)c1ccc(-c2ccc(-c3sccc3CO)cc2C(=O)Nc2ccc(C(=N)N)cc2)c(C(=O)O)c1 [substituted biphenyl derivative, 36aj]
5990 | CCc1ccc(-c2ccc(C(=O)NCC(C)C)cc2C(=O)O)c(C(=O)Nc2ccc(C(=N)N)cc2)c1 [substituted biphenyl derivative, 36c]
1340 | C/C=C\Cc1ccc(-c2ccc(C(=O)NCC(C)C)cc2C(=O)O)c(C(=O)Nc2ccc(C(=N)N)cc2)c1 [substituted biphenyl derivative, 36j]
2870 | C#Cc1ccc(-c2ccc(C(=O)NCC(C)C)cc2C(=O)O)c(C(=O)Nc2ccc(C(=N)N)cc2)c1 [substituted biphenyl derivative, 36f]
470 | CC(C)CNC(=O)c1ccc(-c2ccc(-c3ccoc3)cc2C(=O)Nc2ccc(C(=N)N)cc2)c(C(=O)O)c1 [substituted biphenyl derivative, 36ac]
570 | CC(C)CNC(=O)c1ccc(-c2ccc(Cc3ccccc3)cc2C(=O)Nc2ccc(C(=N)N)cc2)c(C(=O)O)c1 [substituted biphenyl derivative, 36w]
3040 | CC(C)CNC(=O)c1ccc(-c2ccc(-c3ccsc3CO)cc2C(=O)Nc2ccc(C(=N)N)cc2)c(C(=O)O)c1 [substituted biphenyl derivative, 36ai]
2190 | C=C(CCO)c1ccc(-c2ccc(C(=O)NCC(C)C)cc2C(=O)O)c(C(=O)Nc2ccc(C(=N)N)cc2)c1 [substituted biphenyl derivative, 36o]
240 | CC(C)CNC(=O)c1ccc(-c2ccc(-c3cccs3)cc2C(=O)Nc2ccc(C(=N)N)cc2)c(C(=O)O)c1 [substituted biphenyl derivative, 36z]

— BindingDB's records for doi:10.1016/j.bmc.2009.04.013 (Biocryst Pharmaceuticals, 2009)
